Test results as given in ChEMBL document CHEMBL3132769, “Fragment growing to retain or alter the selectivity of anchored kinase hinge-binding fragments” (Medchemcomm, 2014).

Experiments:
[1] = biological target: RAC-alpha serine/threonine-protein kinase (Homo sapiens) (UniProt P31749); assay: Inhibition of human AKT1 catalytic domain expressed in baculovirus assessed as substrate phosphorylation using fluorescence-labelled peptides as substrate at 95 uM after 90 mins by microfluidic peptide phosphorylation assay
[2] = biological target: Protein kinase C eta type (Homo sapiens) (UniProt P24723); assay: Inhibition of human truncated PKC eta expressed in baculovirus assessed as substrate phosphorylation using fluorescence-labelled peptides as substrate at 0.06 uM after 90 mins by microfluidic peptide phosphorylation assay
[3] = biological target: T1, Serine/threonine-protein kinase Nek2 (Homo sapiens) (UniProt P51955); assay: Inhibition of human full length NEK2 expressed in baculovirus assessed as substrate phosphorylation using fluorescence-labelled peptides as substrate at 0.06 uM after 90 mins by microfluidic peptide phosphorylation assay
T1 sequence (whole entry): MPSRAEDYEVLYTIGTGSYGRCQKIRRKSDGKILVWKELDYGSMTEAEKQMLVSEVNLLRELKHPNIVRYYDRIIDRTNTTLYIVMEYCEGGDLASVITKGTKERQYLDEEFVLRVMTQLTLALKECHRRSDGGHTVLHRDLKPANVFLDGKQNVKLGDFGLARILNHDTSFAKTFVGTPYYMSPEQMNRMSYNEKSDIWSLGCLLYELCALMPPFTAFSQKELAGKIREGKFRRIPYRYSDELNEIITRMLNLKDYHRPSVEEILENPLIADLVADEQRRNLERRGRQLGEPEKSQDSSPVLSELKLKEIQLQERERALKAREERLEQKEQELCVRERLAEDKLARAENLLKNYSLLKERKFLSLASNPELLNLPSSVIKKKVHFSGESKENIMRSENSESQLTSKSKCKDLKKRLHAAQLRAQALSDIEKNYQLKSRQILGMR

[4] = biological target: T2, Serine/threonine-protein kinase 3 (Homo sapiens) (UniProt Q13188); assay: Inhibition of human full length MST2 expressed in baculovirus assessed as substrate phosphorylation using fluorescence-labelled peptides as substrate at 0.1 uM after 90 mins by microfluidic peptide phosphorylation assay
T2 sequence (whole entry): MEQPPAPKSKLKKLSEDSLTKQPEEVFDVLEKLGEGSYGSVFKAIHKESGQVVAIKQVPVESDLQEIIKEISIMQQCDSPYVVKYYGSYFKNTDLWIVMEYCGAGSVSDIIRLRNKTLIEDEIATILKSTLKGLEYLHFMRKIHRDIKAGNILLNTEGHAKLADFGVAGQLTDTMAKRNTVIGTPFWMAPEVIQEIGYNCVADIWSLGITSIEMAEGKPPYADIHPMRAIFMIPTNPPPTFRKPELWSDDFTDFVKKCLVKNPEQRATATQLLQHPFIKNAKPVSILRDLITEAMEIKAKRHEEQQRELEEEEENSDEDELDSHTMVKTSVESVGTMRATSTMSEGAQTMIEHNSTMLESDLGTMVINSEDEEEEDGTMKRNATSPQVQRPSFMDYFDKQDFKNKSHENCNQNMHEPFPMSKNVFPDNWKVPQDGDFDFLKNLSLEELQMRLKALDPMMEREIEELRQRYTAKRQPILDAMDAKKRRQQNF

[5] = test system: T3, Receptor-type tyrosine-protein kinase FLT3 (Homo sapiens), P36888 [D835Y]; assay: Inhibition of human FLT3 D835Y mutant catalytic domain expressed in baculovirus assessed as substrate phosphorylation using fluorescence-labelled peptides as substrate at […] after 90 mins by microfluidic peptide phosphorylation assay
T3 sequence (whole entry): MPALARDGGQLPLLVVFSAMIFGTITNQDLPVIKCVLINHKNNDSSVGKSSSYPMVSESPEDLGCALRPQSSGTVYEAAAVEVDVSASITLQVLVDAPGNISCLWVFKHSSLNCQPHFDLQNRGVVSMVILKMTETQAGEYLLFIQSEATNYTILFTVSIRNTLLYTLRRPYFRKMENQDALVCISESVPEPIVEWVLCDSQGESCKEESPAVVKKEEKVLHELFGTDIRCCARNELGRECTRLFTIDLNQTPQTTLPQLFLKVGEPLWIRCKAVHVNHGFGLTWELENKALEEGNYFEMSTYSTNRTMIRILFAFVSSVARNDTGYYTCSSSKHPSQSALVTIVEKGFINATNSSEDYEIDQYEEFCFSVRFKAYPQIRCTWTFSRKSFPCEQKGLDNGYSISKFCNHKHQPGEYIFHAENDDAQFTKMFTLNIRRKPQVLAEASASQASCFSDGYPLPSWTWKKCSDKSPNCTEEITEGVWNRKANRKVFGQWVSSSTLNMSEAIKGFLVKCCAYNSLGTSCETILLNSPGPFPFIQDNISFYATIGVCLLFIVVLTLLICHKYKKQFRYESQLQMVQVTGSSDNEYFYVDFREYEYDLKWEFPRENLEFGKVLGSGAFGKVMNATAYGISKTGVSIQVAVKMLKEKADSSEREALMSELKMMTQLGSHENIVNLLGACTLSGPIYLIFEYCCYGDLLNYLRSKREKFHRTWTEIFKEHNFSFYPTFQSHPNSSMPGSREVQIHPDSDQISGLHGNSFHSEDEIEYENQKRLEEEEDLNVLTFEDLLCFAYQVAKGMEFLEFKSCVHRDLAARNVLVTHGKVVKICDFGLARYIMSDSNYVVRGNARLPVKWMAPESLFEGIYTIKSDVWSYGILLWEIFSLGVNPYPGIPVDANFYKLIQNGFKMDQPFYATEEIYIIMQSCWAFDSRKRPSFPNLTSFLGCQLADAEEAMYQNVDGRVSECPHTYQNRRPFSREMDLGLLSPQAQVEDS

[6] = biological target: T4, Testis-specific serine/threonine-protein kinase 1 (Homo sapiens) (UniProt Q9BXA7); assay: Inhibition of human full length TSSK1 expressed in baculovirus assessed as substrate phosphorylation using fluorescence-labelled peptides as substrate at 8 uM after 90 mins by microfluidic peptide phosphorylation assay
T4 sequence (whole entry): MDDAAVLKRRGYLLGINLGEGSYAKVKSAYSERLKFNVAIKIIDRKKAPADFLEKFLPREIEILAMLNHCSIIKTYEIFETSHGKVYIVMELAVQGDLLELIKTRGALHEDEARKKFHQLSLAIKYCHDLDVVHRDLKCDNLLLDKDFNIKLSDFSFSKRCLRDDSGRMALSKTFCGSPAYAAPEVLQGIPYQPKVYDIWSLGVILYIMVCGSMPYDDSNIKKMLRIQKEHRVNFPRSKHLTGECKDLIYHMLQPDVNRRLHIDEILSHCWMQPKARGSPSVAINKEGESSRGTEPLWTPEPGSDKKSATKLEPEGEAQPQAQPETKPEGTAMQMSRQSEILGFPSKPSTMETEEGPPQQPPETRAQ

[7] = test system: T3, Receptor-type tyrosine-protein kinase FLT3 (Homo sapiens), P36888 [D835Y]; assay: Inhibition of human FLT3 D835Y mutant catalytic domain expressed in baculovirus assessed as substrate phosphorylation using fluorescence-labelled peptides as substrate at 1000 uM after 90 mins by microfluidic peptide phosphorylation assay

Sequence of RAC-alpha serine/threonine-protein kinase (Homo sapiens) (P31749 whole entry, the tested form may be a part): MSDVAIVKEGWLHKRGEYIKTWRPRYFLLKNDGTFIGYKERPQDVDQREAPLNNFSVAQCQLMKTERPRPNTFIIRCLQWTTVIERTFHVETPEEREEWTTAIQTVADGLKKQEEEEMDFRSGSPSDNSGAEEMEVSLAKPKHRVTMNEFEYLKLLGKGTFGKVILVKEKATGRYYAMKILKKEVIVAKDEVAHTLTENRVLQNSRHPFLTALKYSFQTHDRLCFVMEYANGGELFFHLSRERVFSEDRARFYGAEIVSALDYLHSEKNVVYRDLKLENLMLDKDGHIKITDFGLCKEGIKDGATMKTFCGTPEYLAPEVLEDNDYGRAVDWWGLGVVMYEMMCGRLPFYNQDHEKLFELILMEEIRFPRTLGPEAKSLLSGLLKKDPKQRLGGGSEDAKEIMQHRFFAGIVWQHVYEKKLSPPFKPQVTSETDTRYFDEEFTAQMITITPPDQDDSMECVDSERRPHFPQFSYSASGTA
Sequence of Protein kinase C eta type (Homo sapiens) (P24723 whole entry, the tested form may be a part): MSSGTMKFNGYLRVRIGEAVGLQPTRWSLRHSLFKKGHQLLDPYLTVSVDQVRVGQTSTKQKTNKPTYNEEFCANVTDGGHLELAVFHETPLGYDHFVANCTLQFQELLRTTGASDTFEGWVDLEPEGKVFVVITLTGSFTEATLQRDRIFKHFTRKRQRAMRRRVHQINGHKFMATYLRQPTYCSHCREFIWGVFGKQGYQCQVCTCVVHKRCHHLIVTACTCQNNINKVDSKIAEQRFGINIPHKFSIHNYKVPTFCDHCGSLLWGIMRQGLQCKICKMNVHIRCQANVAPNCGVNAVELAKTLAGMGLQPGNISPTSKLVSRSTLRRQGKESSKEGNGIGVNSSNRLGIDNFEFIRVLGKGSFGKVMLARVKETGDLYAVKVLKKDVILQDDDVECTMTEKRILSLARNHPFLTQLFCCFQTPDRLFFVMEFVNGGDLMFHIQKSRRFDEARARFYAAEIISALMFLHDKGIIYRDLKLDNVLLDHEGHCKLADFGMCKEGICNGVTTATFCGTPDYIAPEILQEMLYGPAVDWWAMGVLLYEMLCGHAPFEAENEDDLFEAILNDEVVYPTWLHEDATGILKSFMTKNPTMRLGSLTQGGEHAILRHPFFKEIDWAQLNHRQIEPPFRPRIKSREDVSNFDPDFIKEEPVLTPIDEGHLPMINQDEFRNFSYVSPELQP

Work on `NCCc1ccc(-c2ncnc3[nH]cnc23)cc1` yielded an inhibition [1] of 81%.
`NC1(Cc2ccc(Cl)cc2)CCN(c2ncnc3[nH]ccc23)CC1` gave an inhibition [2] of 51% and an inhibition [3] of 0%.
`C[C@H](CN(C)C)Oc1nc(Nc2cc3cccc(Cl)c3cn2)cnc1C#N` was tested, and the inhibition [4] was 11.5%.
For `COC(=O)c1cnc(Nc2cnc(C#N)cn2)cc1NCC1CCNCC1`, the inhibition [5] was 63%.
Work on `NCC1CCN(c2ncnc3[nH]ccc23)CC1` yielded an inhibition [6] of 25.5%.
`c1cnc2[nH]ccc2c1` gave an inhibition [7] of 76%.
